Measured values as given in patent publication US8796241B2, “Therapy of tumors and infectious agents deficient in methylthioadenosine phosphorylase” (priority 2007, dated 2014).

What was measured:
[1] = tested on: MTAP-positive cells and cells lines; assay: Applicants' tissue culture experiments on protection of MTAP-positive cells (summary statements); assay type: cell-based, human; mouse
MTAP(+) HF cells [2] = assay: Coulter counts of HF cell cultures; assay type: cell-based, human; settings: for Coulter counts: x56 = cells/dish
Protocol: For adherent cell types (e.g., HF, A549, MCF7) cells were plated in 60 mm -diameter plastic tissue culture dishes and incubated at 37° C. in a humidified 5% CO2 atmosphere, in Dulbecco's Modified Eagle's Medium (DME) with 10% fetal bovine serum (FBS). At the start of an experiment, medium was replaced with DME and 10% dialyzed FBS.
(§1) For adherent cell types, cell numbers were determined periodically by releasing cells with trypsin (dead cells that were no longer adherent were removed by two prior rinses of the culture dish) and placing a portion of the resulting cell suspension in a Coulter counter. For cell types that grow in suspension, portions of the culture were counted directly, without trypsin treatment. Coulter counts of cells from each dish were done twice, and almost all experiments were done in duplicate. In the presentation of results, raw data for Coulter counts is given in some cases, while in others, counts have been rounded off to two to three significant figures. (Background Coulter counts—i.e., counts of diluent alone—were insignificant.)
Cell cultures were treated with MeP, with or without 5′-dAdo or MTA, for 4 days. The cell cultures were then changed to fresh medium, with the addition of 30 μM Ade to inhibit further action of the analog. Two days later cultures were trypsinized and a portion of the suspension was counted.
• A. F-Ade was added to cultures of HF cells, with varying amounts of 5′-dAdo. After 3 days, cell numbers were counted. • Initial cell count: 1,100 • After three days:
• Cultures of human fibroblasts were treated with DAP, 5′-dAdo, MTA, adenine, or MTX. Thymidine (15 μM) was added to all cultures. • Initial count was: 1807 • Counts, as raw data, after 3 days of incubation, are shown below: […]
• Human fibroblasts in culture were treated with 6-thioguanine (TG), 2,6-diaminopurine (DAP), or 5′-dAdo for 3 days. After trypsinization, cell numbers were counted. • Initial cell number: 296,000

MTAP(−) A549 cells = assay: Clonogenic assay of A549 cells; assay type: cell-based, human; settings: for potentiation of killing of A549 cells by DAP: Example 9
Protocol: (§2) Cell viability of adherent cell types was measured by clonogenic assay as follows: after releasing cells with trypsin and removing a portion of the cell suspension for Coulter counting, the remainder of the cell suspension was plated in serial dilutions in growth medium, without drugs. After a period sufficient for clones to reach a size visible by eye (usually 2 to 3 weeks), clones were stained with crystal violet in a saline/methanol solution. Dishes that had fewer than 100 clones were deemed suitable for counting. From these counts and from the dilution factors, the approximate number of viable cells, in the parent treatment dishes, was calculated. […] In clonogenic assays, clone size was often variable, especially after treatment with toxic drugs. Moreover, many of the very small clones may have arisen from cells detached during the weeks of incubation. […] Cloning efficiency for healthy, growing A549 cells was about 50%; for HF cells, efficiency was quite variable, ranging from 25 to 75% (perhaps because the HF cell stock varied, from experiment to experiment, in passage number).
A549 cells were incubated for 4 days with additions shown below, and viable cells measured by clonogenic assay. (Results shown are approximate; see Methods) Cell count in dish at start: 40,000
• MTAP(−) A549 lung tumor cell cultures were treated with F-Ade, with or without MTA, 5′-dAdo, or adenine (Ade), for three days. Coulter counts of cells, and viable cells as determined by clonogenic assay, are shown below: • Initial cell number: 10,340*
• A549 cell cultures were treated with DAP, with or without 5′-dAdo or adenine, for three days. After trypsinization, one-fourth of the cell suspension was counted, and raw data is shown below, with duplicate counts for each sample. The cell suspension was also serially diluted for clonogenic assay. • Counts at start of experiment: Dish one: 36,480; 39,160; Dish two: 52,680; 51,360. • Initial viable cells by clonogenic assay: 180,000.
• Cell cultures were treated with MTX or alanosine for one day. DAP was then added and 3 days later, cells were trypsinized and serially diluted for clonogenic assay. Results are shown below: • Initial viable cells: 146,000
• A549 cells were plated, and after they had adhered to the substrate, medium was changed to methionine-free medium with 10% dialyzed serum. L-ethionine (Eth) and MTA were added, and after 4 days, cell cultures were trypsinized and serially diluted for clonogenic assay. • Initial number of viable cells: 160,000*
• A549 cultures were treated with 6-thioguanine (TG) or 2,6,diaminopurine (DAP), or both, for 3 days. • Initial viable cells: 275,000 • After 3 days: […]

[3] = tested on: MTAP(+) hematopoietic cell progenitors; assay: Assay of colony-forming cells from mouse bone marrow; assay type: cell-based
Description: Method: The procedure for assay of colony-forming cells from mouse bone marrow was similar to methods described in the literature (see e.g., B. A. Teicher et al, Cancer Research, 47:513-518, 1987). In brief, cells were flushed from the femurs of Swiss mice, counted, and seeded into six-well tissue culture plates with supplemented McCoy's 5A medium, 15% FBS, 10 to 20% L929-cell conditioned medium as a source of colony-stimulating activity (L929 is MTAP-negative), 0.3% agar, and penicillin/streptomycin (op. cit. B. A. Teicher et al). Cells were seeded at two different densities: 50,000 and 250,000 cells per well. Control wells contained either no drugs, or adenine at 15 or 30 μM, or 5′-deoxyadenosine (5′-dAdo) at 15, 30, or 45 μM. Treatment wells contained 6-methylpurine (MeP) at 5 or 15 μM, 5′-deoxyadenosine (5′-dAdo) at 15 or 30 μM, and adenine at 15 or 30 μM, in various combinations. After eight days of incubation at 37° C. in a humidified 5% CO2 atmosphere, wells were fixed by the addition of 1 ml of 5% glutaraldehyde. Photographs were taken of a randomly selected portion of each well, as viewed (at fixed magnification) through a Nikon inverted microscope equipped with a camera.

[4] = tested on: human and mouse tumor cells; assay: Killing of tumor cells by adenine analogs (Applicants' findings, no method given); assay type: cell-based
MTAP-negative cell lines = assay: Applicants' tissue culture experiments on MTAP-negative cell lines (summary statements); assay type: cell-based, human; mouse; settings: co-administered inhibitor of de novo purine synthesis
[5] = tested on: MTAP(+) HT29 colon carcinoma cells; assay: Coulter counts of HT29 cultures; assay type: cell-based, human; settings: 4 days, 5′-dAdo 60 μM added one day before, where present, initial count 46,000, x4 = cells/dish
Protocol: as §1
• 5′-dAdo was added to cultures of MTAP(+) HT29 colon carcinoma cells for one day. 5-fluorouracil (FU) was then added and 4 days later cultures were trypsinized, thoroughly dispersed into mostly single cells by vigorous pipetting, and counted. • Initial Coulter count at time of addition of FU: 46,000

MTAP(−) HL-60 cells = assay: Coulter counts of HL-60 suspension cultures; assay type: cell-based; settings: six days, 5′-dAdo or Ade 60 μM added 3 hours before, where present, initial cell number/ml 8,160
Protocol: (§3) For cell types that grow in suspension (e.g., ML-1, HL-60, K-562) medium was RPMI-1640 with 10% FBS (undialyzed).
as §1
(§4) For cells that grow in suspension, the effect of treatments was assessed solely by changes in Coulter count.
• HL-60 cells were grown in RPMI 1640 with 10% FBS. 5′-dAdo, adenine, or neither were added, and after 3 hours, 5-fluorouracil (FU) was added to selected dishes. Six days later, cell numbers were assessed in a Coulter counter. • Initial cell number/ml: 8,160

MTAP(+) ML-1 cells = assay: Coulter counts of ML-1 suspension cultures; assay type: cell-based; settings: for Increase in cell number/ml, No 5′-dAdo: 2 days, FU 3 μM, TG 20 μM, DAP 50 μM where present, initial Coulter count/ml 308,000; for inhibition of growth of MTAP(+) ML-1 cells: Example 14
Protocol: as §3, §1, §4
• ML-1 cells were incubated in RPMI 1640 with 10% FBS with 5′-dAdo (60 μM) for 6 hours. 5-fluorouracil (FU), 6-thioguanine (TG), or 2,6-diaminopurine (DAP) were then added, and after 2 additional days, 0.5 ml was taken for Coulter counts. Initial Coulter count/ml: 308,000

MTAP(+) HF cells [6] = assay: Clonogenic assay of HF cells; assay type: cell-based, human
Protocol: as §2
• B. F-Ade was added to cultures of MTAP(+) HF cells, with or without 5′-dAdo, for 3 days. Cultures were then trypsinized and serially diluted for clonogenic assay. • Initial number of viable cells per dish: 45,000 • Viable cells after 3 days shown below:
• HF cells were plated, and after they had adhered to the substrate, medium was changed to methionine-free medium, with 10% dialyzed serum. • Initial Coulter count: 73,000*; viable cells: 88,000 • After 3 days in methionine-free medium, with or without L-ethionine (Eth) or MTA: […]

[7] = MTX 1 μM or alanosine 3 μM for one day, then DAP 40 μM, 3 days (where present), initial viable cells 146,000

SMILES: Nc1nc2nn[nH]c2c(=O)[nH]1 [8-azaguanine]
- protection of MTAP-positive cells, but not MTAP-negative cells, from the toxicity of the nucleobase analog [1]: selectively protected

SMILES: Cc1ncnc2nc[nH]c12 [MeP, 6-methylpurine]
- Coulter counts (MTAP(+) HF cells [2]; MeP 5 μM, 5′-dAdo 20 μM or MTA 10 μM where present, 4 days, then fresh medium with 30 μM Ade, 2 days, initial count 1,157): 2,885
- toxicity to HF cells (MTAP(+) HF cells [2]; MeP 5-10 μM, Example 3): strongly toxic
- toxicity to A549 cells, clonogenic assay (MTAP(−) A549 cells; 10 μM MeP): highly toxic
- Viable Cells (MTAP(−) A549 cells; 4 days, MeP 10 μM, MTA, 5′-dAdo or Ade 20 μM where present, cell count at start 40,000, approximate): 0
- toxicity to colony-forming murine hematopoietic progenitors ([3]; MeP at doses of 5 and 15 μM): highly toxic
- colonies observed (each field of view) ([3]; wells seeded at 250,000 cells/well, eight days, MeP 5 or 15 μM, adenine or 5′-dAdo 15 or 30 μM where present, control approximately 40-50 colonies): no colonies
- killing of human and mouse tumor cells [4]: very rapid and potent killing

SMILES: CN(Cc1cnc2nc(N)nc(N)c2n1)c1ccc(C(=O)N[C@@H](CCC(=O)O)C(=O)O)cc1 [MTX, methotrexate]
- Coulter counts (MTAP(+) HF cells [2]; 3 days, MTX 10 μM, DAP 100 μM, 5′-dAdo, MTA or Ade 15 μM where present, thymidine 15 μM in all cultures, initial count 1807): 3,455
- potentiation of killing of A549 cells by DAP (MTAP(−) A549 cells): strongly potentiated
- Viable Cells (MTAP(−) A549 cells; [7]): 89,000
- potentiation of selective killing of MTAP-negative cells by adenine and methionine antagonists (MTAP-negative cell lines): potentiated

SMILES: O=c1[nH]cc(F)c(=O)[nH]1 [FU, 5-fluorouracil]
- Coulter counts ([5]; FU 3 μM): 65,300
- Coulter counts ([5]; FU 10 μM): 36,600
- Coulter counts ([5]; FU 30 μM): 25,500
- Coulter counts/ml (MTAP(−) HL-60 cells; FU 10 μM): 125,200 counts/ml
- Coulter counts/ml (MTAP(−) HL-60 cells; FU 30 μM): 62,400 counts/ml
- Increase in cell number/ml, No 5′-dAdo (MTAP(+) ML-1 cells): 436,000 /ml
- inhibition of growth of MTAP(+) ML-1 cells (MTAP(+) ML-1 cells): inhibited growth
- protection of MTAP-positive cells, but not MTAP-negative cells, from the toxicity of the nucleobase analog [1]: selectively protected

SMILES: CCSCC[C@H](N)C(=O)O [Eth, ethionine]
- toxicity to HF cells (MTAP(+) HF cells [6]; 40 μM L-ethionine, methionine-free medium): very toxic
- Viable Cells (MTAP(+) HF cells [6]; 3 days in methionine-free medium, Eth 40 μM, MTA 15 μM where present, initial viable cells 88,000): 1,600
- Viable Cells (MTAP(−) A549 cells; 4 days, methionine-free medium, Eth 40 μM, MTA 30 μM where present, initial viable cells 160,000): 24,000
- Viable Cells (MTAP(−) A549 cells; 4 days, methionine-free medium, Eth 80 μM, MTA 30 μM where present, initial viable cells 160,000): 5,000

SMILES: Nc1ncnc2nc[nH]c12 [Ade, adenine]
- blocking of DAP toxicity in HF cells (MTAP(+) HF cells [2]; Example 8): blocked
- blocking of MeP toxicity in A549 cells (MTAP(−) A549 cells; 10 μM MeP): blocked
- blocking of DAP toxicity in A549 cells (MTAP(−) A549 cells; 100 μM DAP, Example 7): did
- blocking of F-Ade toxicity in A549 cells (MTAP(−) A549 cells; 1 to 2 μM F-Ade): blocked

SMILES: O=CN(O)CC(=O)O [hadacidin]
- potentiation of selective killing of MTAP-negative cells by adenine and methionine antagonists (MTAP-negative cell lines): potentiated

SMILES: Nc1nc2nc[nH]c2c(=S)[nH]1 [TG, 6-thioguanine]
- Increase in cells/dish (MTAP(+) HF cells [2]; 3 days, TG 40 μM, DAP 50 μM, 5′-dAdo 60 μM where present, initial cell number 296,000): 72,000 cells/dish
- inhibition of HF cell growth (MTAP(+) HF cells [2]; Example 15): inhibited
- Viable Cells (MTAP(−) A549 cells; 3 days, TG 40 μM, DAP 50 μM where present, initial viable cells 275,000): 200,000
- Increase in cell number/ml, No 5′-dAdo (MTAP(+) ML-1 cells): 114,000 /ml
- inhibition of growth of MTAP(+) ML-1 cells (MTAP(+) ML-1 cells): inhibited growth
- protection of MTAP-positive cells, but not MTAP-negative cells, from the toxicity of the nucleobase analog [1]: selectively protected

SMILES: N[C@@H](CN(O)N=O)C(=O)O [Alanosine, alanosine]
- potentiation of killing of A549 cells by DAP (MTAP(−) A549 cells): strongly potentiated
- Viable Cells (MTAP(−) A549 cells; [7]): 118,000
- potentiation of selective killing of MTAP-negative cells by adenine and methionine antagonists (MTAP-negative cell lines): potentiated
